Results on 3 molecules are retold here after patent US6800649B1, “Method for inhibiting c-jun expression using JAK-3 inhibitors” (Parker Hughes Institute, priority 1998, dated 2004).

Structures are written as SMILES.

The subject of assay [1] is c-jun expression in DT-40 chicken lymphoma B-cells. Nature of the assay: Radiation-induced c-jun mRNA expression by Northern blot. The class given is cell-based. The arrangement: unit of the concentration uncertain. As to conditions: DT-40 cells. The protocol:
FIGS. 1A and 1B. Radiation-induced c-jun activation in wild-type DT-40 lymphoma B-cells. [A]. Dose reponse for induction of c-jun mRNA. DT-40 chicken cells were irradiated at the indicated doses (0, 10, 15, 20 Gy). Total RNA was extracted after a 2 hours or 4 hours post-irradiation time period. RNA ([…]) was loaded on a Northern gel and transferred by capillary blotting to a nylon membrane. The Northern blot was hybridized with a ^32P labeled chicken c-jun probe (top panel) or a chicken GAPDH probe (bottom panel). […] Effect of the PTK inhibitor genistein on induction of c-jun mRNA. Cells were treated with […] of genistein for 24 hours at 37° C. prior to exposure to 20 Gy ionizing radiation. c-jun expression levels were determined as in [A].
FIG. 5. Effects of a JAK-3 inhibitor on c-jun induction in irradiated DT-40 cells. Cells were treated with the quinazoline derivative 4(3′-Bromo-4′-hydroxyl-phenyl)-amino-6,7-dimethoxyquinazoline ([…]) for 24 hours at 37° C. prior to exposure to 20 Gy ionizing radiation. c-jun expression levels were determined as outlined in FIGS. 1-3. […]
A 506 basepair (bp) c-jun probe was obtained by polymerase chain reaction (PCR) amplification of chicken genomic DNA. Primer sequences were determined based upon the sequence of chicken c-jun (GenBank accession code CHKJUN). […]

The target in assay [2] is T1, JAK-3 (Homo sapiens, UniProt P52333).
T1 construct: made in house; host or cells: Sf21 insect cells (baculovirus)
T1 sequence (P52333 1-1124): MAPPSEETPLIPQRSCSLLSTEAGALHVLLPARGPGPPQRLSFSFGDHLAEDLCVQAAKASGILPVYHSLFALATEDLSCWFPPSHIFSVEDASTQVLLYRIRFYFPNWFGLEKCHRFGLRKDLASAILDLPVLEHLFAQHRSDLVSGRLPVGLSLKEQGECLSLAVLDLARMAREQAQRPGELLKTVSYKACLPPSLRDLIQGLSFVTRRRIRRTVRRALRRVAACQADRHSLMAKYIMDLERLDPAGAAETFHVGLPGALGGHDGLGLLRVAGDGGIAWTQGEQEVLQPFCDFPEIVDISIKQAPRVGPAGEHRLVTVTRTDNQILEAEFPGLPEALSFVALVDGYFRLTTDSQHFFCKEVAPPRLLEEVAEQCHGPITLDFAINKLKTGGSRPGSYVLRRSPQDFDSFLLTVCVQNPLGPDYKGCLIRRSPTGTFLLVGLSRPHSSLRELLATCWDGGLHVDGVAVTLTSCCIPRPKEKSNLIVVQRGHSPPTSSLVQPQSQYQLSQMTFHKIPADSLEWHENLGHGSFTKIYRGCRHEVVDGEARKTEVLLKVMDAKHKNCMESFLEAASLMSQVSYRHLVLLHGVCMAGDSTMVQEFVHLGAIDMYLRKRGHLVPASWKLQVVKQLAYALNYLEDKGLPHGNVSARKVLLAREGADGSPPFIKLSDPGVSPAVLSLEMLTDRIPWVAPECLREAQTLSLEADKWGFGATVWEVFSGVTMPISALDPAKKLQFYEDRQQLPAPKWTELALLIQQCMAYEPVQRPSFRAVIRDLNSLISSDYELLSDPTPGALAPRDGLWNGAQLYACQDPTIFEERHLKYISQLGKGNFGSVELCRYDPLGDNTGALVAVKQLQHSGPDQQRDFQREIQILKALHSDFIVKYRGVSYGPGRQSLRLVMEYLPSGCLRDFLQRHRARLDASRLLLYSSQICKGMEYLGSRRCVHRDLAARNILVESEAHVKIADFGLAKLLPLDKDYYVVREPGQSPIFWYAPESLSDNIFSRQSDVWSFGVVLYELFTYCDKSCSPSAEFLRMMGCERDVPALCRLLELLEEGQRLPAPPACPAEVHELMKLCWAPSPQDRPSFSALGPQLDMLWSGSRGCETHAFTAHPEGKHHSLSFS
Nature of the assay: Immune complex hot kinase assay of JAK-3 immunoprecipitated from baculovirus-infected Sf21 cells. Type of assay: biochemical. As to conditions: 10 μg/ml, 1 hour exposure of immune complexes before kinase assay. The protocol: (§1) FIGS. 4B1-B4. JAK-3 Inhibitors. [A]. Structures of JAK-3 inhibitors. [B] Specificity of JAK-3 inhibitors. Sf21 cells infected with baculovirus expression vectors for JAK-1 JAK-2 or JAK-3 were subjected to immunoprecipitation with anti-JAK antibodies. JAK-1 (shown in B.1), JAK-2 (shown in B.2) and JAK-3 (shown in B.3 and B.4 which illustrate results from 2 independent experiments) immune complexes were treated with 1% DMSO (vehicle control=CON), Compound 1, or Compound 2 for 1 hour prior to hot kinase assays, as described (20,22). […] EMSAs of […]-IL-2Rβ cells. Compound 1(100 (g/ml) and Compound 2 (100 (g/ml) inhibited IL-2 triggered JAK-3-dependent STAT activation but not IL-3-triggered JAK-1/JAK-2-dependent STAT activation in 32Dc11-IL-2Rβ cells.
(§2) After establishing that LYN, BTK, and SYK kinases are not required for radiation-induced c-jun activation, we set out to determine if c-jun activation is functionally linked to the JAK-STAT pathway. To this end, we examined the effects of a JAK-3 inhibitory novel quinazoline derivative on c-jun expression levels in irradiated DT-40 cells. To identify a potent JAK-3 specific inhibitor, the effects of two novel quinazoline derivatives on the enzymatic activity of JAK-1, JAK-2, and JAK-3 were examined using Sf21 cells that were infected with baculovirus expression vectors for these kinases, using standard methods (FIG. 4). […]

Assay [3] concerns the target T2, JAK-1 (Homo sapiens, UniProt P23458).
T2 construct: made in house; host or cells: Sf21 insect cells (baculovirus)
In words: Immune complex hot kinase assay of JAK-1 immunoprecipitated from baculovirus-infected Sf21 cells. Type of assay: biochemical. As to conditions: even at 75 μg/ml, 1 hour exposure of immune complexes before kinase assay. On the procedure: as §1, §2

In assay [4] the target is T3, JAK-2 (Homo sapiens, UniProt O60674).
T3 construct: made in house; host or cells: Sf21 insect cells (baculovirus)
In words: Immune complex hot kinase assay of JAK-2 immunoprecipitated from baculovirus-infected Sf21 cells. Type of assay: biochemical. The settings on record: even at 75 μg/ml, 1 hour exposure of immune complexes before kinase assay. The protocol: as §1, §2

In assay [5] the test system is IL-2 triggered JAK-3-dependent STAT activation. Nature of the assay: EMSA of IL-2 triggered STAT activation in 32Dc11-IL-2Rβ cells. The settings on record: 100 (g/ml, EMSA (FIG. 4C legend)). The class given is cell-based. On the procedure: as §1
Electrophoretic Mobility Shift Assays (EMSAs) were performed to examine the effects of both compounds on cytokine-induced STAT activation. Specifically, 32Dc11/IL2Rβ cells (gift from James Ihle, St. Jude Children's Research Hospital) were exposed at 8×10^6/ml in RPMI supplemented with FBS to the JAK-3 inhibitors at a final concentration of 10 μg/ml in 1% DMSO) for 1 hour and subsequently stimulated with IL2 or IL3 as indicated. […]
For orientation: In EMSA bound probe runs differently from free probe, usually more slowly.

T3 sequence (O60674 whole entry, species assumed): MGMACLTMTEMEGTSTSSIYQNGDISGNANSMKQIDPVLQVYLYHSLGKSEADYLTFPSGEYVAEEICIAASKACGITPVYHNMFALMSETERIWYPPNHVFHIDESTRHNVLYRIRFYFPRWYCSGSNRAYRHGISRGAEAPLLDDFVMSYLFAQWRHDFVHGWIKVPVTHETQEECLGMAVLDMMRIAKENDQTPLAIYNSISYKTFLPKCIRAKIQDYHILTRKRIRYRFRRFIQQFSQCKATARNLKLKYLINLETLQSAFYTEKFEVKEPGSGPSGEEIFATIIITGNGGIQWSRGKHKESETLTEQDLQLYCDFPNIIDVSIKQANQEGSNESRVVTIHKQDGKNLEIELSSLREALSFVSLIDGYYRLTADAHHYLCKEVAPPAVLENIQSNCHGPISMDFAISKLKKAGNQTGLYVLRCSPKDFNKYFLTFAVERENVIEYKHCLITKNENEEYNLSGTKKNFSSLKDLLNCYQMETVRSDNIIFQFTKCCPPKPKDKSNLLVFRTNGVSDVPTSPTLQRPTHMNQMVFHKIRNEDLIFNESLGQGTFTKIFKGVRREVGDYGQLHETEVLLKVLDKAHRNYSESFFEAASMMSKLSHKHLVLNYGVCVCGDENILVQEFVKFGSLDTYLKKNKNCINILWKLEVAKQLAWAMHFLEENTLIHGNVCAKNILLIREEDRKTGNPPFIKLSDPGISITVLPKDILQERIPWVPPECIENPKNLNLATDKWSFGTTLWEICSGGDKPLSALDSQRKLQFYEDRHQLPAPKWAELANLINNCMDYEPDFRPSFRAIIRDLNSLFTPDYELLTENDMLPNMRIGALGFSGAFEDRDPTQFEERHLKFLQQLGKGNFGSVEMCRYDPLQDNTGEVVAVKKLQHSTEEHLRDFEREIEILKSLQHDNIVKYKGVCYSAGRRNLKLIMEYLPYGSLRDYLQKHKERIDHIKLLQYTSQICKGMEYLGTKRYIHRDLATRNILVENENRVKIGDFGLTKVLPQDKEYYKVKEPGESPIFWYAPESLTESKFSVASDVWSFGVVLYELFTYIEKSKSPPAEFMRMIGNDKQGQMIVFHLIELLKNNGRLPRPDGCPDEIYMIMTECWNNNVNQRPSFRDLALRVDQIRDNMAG
T2 sequence (P23458 whole entry, species assumed): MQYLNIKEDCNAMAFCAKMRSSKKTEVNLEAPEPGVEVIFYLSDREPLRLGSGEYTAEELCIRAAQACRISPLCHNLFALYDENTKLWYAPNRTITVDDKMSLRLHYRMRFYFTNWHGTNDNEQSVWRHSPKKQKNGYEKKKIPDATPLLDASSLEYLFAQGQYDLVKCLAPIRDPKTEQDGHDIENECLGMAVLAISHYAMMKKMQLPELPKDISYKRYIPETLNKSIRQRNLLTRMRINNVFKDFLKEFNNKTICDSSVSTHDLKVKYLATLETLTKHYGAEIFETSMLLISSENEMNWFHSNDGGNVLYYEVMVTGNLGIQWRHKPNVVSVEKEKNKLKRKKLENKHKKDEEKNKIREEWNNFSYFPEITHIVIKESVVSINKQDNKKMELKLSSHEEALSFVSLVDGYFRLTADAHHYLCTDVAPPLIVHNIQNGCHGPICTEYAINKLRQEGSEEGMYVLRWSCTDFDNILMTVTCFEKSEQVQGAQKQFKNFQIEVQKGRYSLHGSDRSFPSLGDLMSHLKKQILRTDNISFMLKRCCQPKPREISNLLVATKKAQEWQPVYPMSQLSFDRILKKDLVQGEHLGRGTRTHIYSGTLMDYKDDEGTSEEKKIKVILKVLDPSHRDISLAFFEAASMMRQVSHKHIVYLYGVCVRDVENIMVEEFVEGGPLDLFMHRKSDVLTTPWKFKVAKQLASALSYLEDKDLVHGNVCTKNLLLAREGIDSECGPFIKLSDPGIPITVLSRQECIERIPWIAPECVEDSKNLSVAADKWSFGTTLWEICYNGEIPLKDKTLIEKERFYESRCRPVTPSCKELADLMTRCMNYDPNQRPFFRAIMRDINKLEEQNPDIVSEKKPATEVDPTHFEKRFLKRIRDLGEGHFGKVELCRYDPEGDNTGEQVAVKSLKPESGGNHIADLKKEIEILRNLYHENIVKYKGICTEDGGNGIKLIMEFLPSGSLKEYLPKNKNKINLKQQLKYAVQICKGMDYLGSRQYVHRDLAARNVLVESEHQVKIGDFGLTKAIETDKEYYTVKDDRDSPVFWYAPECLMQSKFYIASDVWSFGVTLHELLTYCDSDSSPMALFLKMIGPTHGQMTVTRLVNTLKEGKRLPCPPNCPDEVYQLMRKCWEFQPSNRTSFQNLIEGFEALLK

In the case of `O=c1c(-c2ccc(O)cc2)coc2cc(O)cc(O)c12` [genistein, reference compound], in assay [1] (30 (unit uncertain) for 24 hours at 37° C. before 20 Gy ionizing radiation), the “stimulation index (c-jun/GAPDH ratio, irradiated versus non-irradiated cells)” value worked out at 1.1.

For `COc1cc2ncnc(Nc3ccc(O)c(Br)c3)c2cc1OC` [Compound 2, 4-(3′-Bromo-4′-hydroxylphenyl)-amino-6,7-dimethoxy-quinazoline], in assay [2], the “inhibition of JAK-3 enzymatic activity” value is given as “inhibited”. The “inhibition of JAK-1 enzymatic activity” value in assay [3] is on record as “did not inhibit”. Also, the “inhibition of JAK-2 enzymatic activity” value in assay [4] is “did not inhibit”. In addition, in assay [5], the “inhibition of IL-2 triggered JAK-3-dependent STAT activation” value is reported as “inhibited”. For the same molecule, the “induction of c-jun expression by ionizing radiation in treated cells” value in assay [1] (100 (unit uncertain) for 24 hours at 37° C. before 20 Gy ionizing radiation) is recorded as “failed to induce c-jun expression”.

In the case of `COc1cc2ncnc(Nc3ccc(O)cc3)c2cc1OC` [Compound 1, 4-(4′-Hydroxylphenyl)-amino-6,7-dimethoxy-quinazoline], in assay [2], the “inhibition of JAK-3 enzymatic activity” value is listed as “inhibited”. Moreover, in assay [3], the “inhibition of JAK-1 enzymatic activity” value is recorded as “did not inhibit”. Further, the “inhibition of JAK-2 enzymatic activity” value in assay [4] is “did not inhibit”. Moreover, the “inhibition of IL-2 triggered JAK-3-dependent STAT activation” value in assay [5] was “inhibited”.
